In US11459312B2, “Sulphur substituted 3-oxo-2,3-dihydropyridazine-4-carboxamides” (Bayer Aktiengesellschaft, priority 2017, dated 2022):

How the values were obtained:
AHR [1] = biological target: T1, AHR (Homo sapiens, UniProt P35869); experiment: In vitro assay 3: AHR-regulated CYP1A1 expression in human cell line (U937, quantitative PCR); type: cell-based; settings: human monocytic U937 cells, CYP1A1 expression induced with 200 μM KA, 6 hours, qPCR; read-out: Assay 3: Hum CYP1A1 Antagonism IC50
T1 sequence (P35869 11-848): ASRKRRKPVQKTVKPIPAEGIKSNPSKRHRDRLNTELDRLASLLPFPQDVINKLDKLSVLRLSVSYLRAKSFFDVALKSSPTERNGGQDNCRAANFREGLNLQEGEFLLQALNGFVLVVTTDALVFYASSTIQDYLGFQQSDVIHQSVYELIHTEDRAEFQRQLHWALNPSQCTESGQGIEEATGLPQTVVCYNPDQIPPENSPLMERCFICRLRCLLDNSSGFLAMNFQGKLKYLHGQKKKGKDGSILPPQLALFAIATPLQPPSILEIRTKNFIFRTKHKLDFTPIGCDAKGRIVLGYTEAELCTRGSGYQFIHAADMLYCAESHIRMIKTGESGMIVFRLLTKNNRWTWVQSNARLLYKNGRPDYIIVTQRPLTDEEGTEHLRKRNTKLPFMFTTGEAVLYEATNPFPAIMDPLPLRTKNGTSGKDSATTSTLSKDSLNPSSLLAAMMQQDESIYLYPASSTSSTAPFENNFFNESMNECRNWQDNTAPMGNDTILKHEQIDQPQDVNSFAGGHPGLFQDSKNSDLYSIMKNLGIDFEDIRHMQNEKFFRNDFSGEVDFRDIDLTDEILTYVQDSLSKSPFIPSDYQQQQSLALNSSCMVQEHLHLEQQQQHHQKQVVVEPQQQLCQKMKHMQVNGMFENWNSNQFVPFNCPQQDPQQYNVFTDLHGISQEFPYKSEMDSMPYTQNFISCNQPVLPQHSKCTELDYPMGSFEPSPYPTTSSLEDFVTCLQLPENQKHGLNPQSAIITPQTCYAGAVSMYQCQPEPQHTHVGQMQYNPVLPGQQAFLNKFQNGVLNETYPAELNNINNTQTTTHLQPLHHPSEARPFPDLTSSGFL
Protocol: In Vitro Assay 3: AHR-Regulated CYP1A1 Expression in Human Cell Line
To assess the AHR inhibitory activity of the substances described in this application, the ability thereof to antagonize ligand-induced AHR gene regulation in a dose-dependent manner was quantified. For this purpose, quantitative PCR analysis was used to determine expression of the AHR-regulated gene CYP1A1 in a human monocytic U937 cell line upon stimulation with 200 μM KA in the presence and absence of AHR inhibitor. U937 cells were sown at a concentration of 2×10^5 cells/well in 100 μl of growth medium (RPMI 1640, 20% FCS) in 96-well microtitre plates. CYP1A1 expression was induced with 200 μM KA (positive control) in the presence or absence of the substances for 6 hours. Human U937 cells were typically incubated with eight different concentrations of the substances (1 nM, 3 nM, 10 nM, 30 nM, 100 nM, 300 nM, 1 μM and 3 μM) and analyzed in duplicate on the same microtitre plate. After stimulation, cells were lysed with Nucleic Acid Lysis Solution (#4305895, Applied Biosystems) and RNA was isolated using the 6100 Nucleic Acid Preparation Station (Applied Biosystems) and reverse-transcribed to cDNA using SuperScript VILO cDNA synthesis kit (#11754-250, Invitrogen). Unstimulated cells were used as the negative control. Taqman probes for human CYP1A1 (Hs01054797_g1) and human HPRT (Hs02800695_m1) were used to analyze fold expression of CYP1A1 of HPRT. Quantitation was performed on a Taqman SDS7900HT.

AHR [2] = biological target: T1, AHR; experiment: In vitro assay 1: AHR-luc transactivation assay, antagonism in human cell line (U87 glioblastoma cells, kynurenic acid prestimulated); type: cell-based; design: U87 glioblastoma cells (ATCC) endogenously expressing AHR; host or cells: U87 glioblastoma cells, stably transfected with DRE-firefly luciferase and renilla reporter constructs only; settings: firefly luciferase DRE reporter, 150 μM kynurenic acid, 20 hours, read-out: Assay 1: AHR-luc Hum Antagonism IC50
Protocol: Transactivation Assay in Human Cell Line (In Vitro Assays 1 and 2)
Transactivation assays were carried out in U87 glioblastoma cells (ATCC) endogenously expressing AHR. In addition the cells were stably transfected with an AHR inducible firefly luciferase reporter gene construct that carried AHR-binding sites (DRE) in its promoter and a renilla reporter gene construct with constitutively active promoter. Kynurenic acid is an endogenous AHR activating ligand and was used to prestimulate test cells prior to testing the antagonistic properties of compounds.
In Vitro Assay 1: Antagonism in Human Cell Line
Cells in medium (tryptophan free RPMI, 1% FCS, 2 mM Glutamine) supplemented with 150 μM kynurenic acid were grown for 20 hours in absence (negative control) or presence of increasing concentrations of test compounds (typical dilutions: […], 0.25 nmol/L, 0.89 nmol/L; 3.1 nmol/L, 11 nmol/L, 38 nmol/L, 130 nmol/L, 470 nmol/L, 1.6 μmol/L, 5.7 μmol/L and 20 μmol/L in duplicates). As positive inhibition control cells supplemented with 150 μM kynurenic acid were incubated in presence of 5 μM Staurosporin. Normalization was done by positive and negative controls.
Firefly luciferase and Renilla activity was determined by the DualGlo Luciferase Assay System (Promega, #2920). Renilla activity was used to assess toxic effects of compounds.

| IC50 (AHR [1]) [nM] | IC50 (AHR [2]) [nM] | Compound |
| --- | --- | --- |
| 43.7 | 30.5 | C[C@@H](CS(C)(=O)=O)NC(=O)c1cc(-c2ccc(Cl)cc2)nn(-c2cnn(C)c2)c1=O [Example 50, 6-(4-Chlorophenyl)-2-(1-methyl-1H-pyrazol-4-yl)-N-[(2S)-1-(methylsulfonyl)propan-2-yl]-3-oxo-2,3-di hydropyridazine-4-carboxamide] |
| 36.9 | 17.7 | O=C(N[C@@H]1CS(=O)(=O)C[C@@H]1O)c1cc(-c2ccc(C(F)(F)F)cc2)nn(-c2cccc(F)c2)c1=O (single isomer, unassigned) [Example 15, (−)-2-(3-fluorophenyl)-N-[(cis)-4-hydroxy-1,1-dioxidotetrahydro-thiophen-3-yl]-3-oxo-6-[4-(trifluoromethyl)phenyl]-2,3-dihydropyridazine-4-carboxamide] |
| 17.1 | 5.77 | O=C(N[C@H]1CS(=O)(=O)C[C@H]1O)c1cc(-c2ccc(Cl)cc2)nn(-c2cccc(F)c2)c1=O (single isomer, unassigned) [Example 57, 6-(4-Chlorophenyl)-2-(3-fluorophenyl)-N-[(cis)-4-hydroxy-1,1-dioxidotetrahydrothiophen-3-yl]-3-oxo-2,3-di hydropyridazine-4-carboxamide] |
| 18.6 | 5.65 | O=C(N[C@@H]1CS(=O)(=O)C[C@@H]1O)c1cc(-c2ccc(C(F)(F)F)cc2)nn(-c2cccc(F)c2)c1=O (relative stereo) [Example 13, 2-(3-fluorophenyl)-N-[(cis)-4-hydroxy-1,1-dioxidotetrahydro-thiophen-3-yl]-3-oxo-6-[4-(trifluoromethyl)phenyl]-2,3-dihydropyridazine-4-carboxamide] |
| 27 | 26.5 | O=C(N[C@H]1CS(=O)(=O)C[C@H]1O)c1cc(-c2ccc(Cl)cc2)nn(-c2cccc(F)c2)c1=O (racemic) [Example 55, 6-(4-Chlorophenyl)-2-(3-fluorophenyl)-N-[(cis)-4-hydroxy-1,1-dioxidotetrahydrothiophen-3-yl]-3-oxo-2,3-dihydropyridazine-4-carboxamide] |
| 756 | 56.9 | N=S1(=O)C[C@H](O)[C@H](NC(=O)c2cc(-c3ccc(Cl)cc3)nn(-c3cccc(F)c3)c2=O)C1 (single isomer, unassigned) [Example 45, 6-(4-chlorophenyl)-2-(3-fluorophenyl)-N-[(cis)-4-hydroxy-1-imino-1-oxidotetrahydro-1H-1lambda4-thiophen-3-yl]-3-oxo-2,3-dihydropyridazine-4-carboxamide] |
| 7.56 | 7.54 | C[C@@H](C[S+](C)[O-])NC(=O)c1cc(-c2ccc(C(F)(F)F)cc2)nn(-c2cnn(C)c2)c1=O (single isomer, unassigned) [Example 24] |
| 29.9 | 15.5 | CSC[C@H](C)NC(=O)c1cc(-c2ccc(Cl)cc2)nn(-c2cnn(C)c2)c1=O [Example 48, 6-(4-Chlorophenyl)-2-(1-methyl-1H-pyrazol-4-yl)-N-[(2S)-1-(methylsulfanyl)propan-2-yl]-3-oxo-2,3-dihydropyridazine-4-carboxamide] |
|  | 295 | O=C(N[C@@H]1C[S+]([O-])C[C@@H]1O)c1cc(-c2ccc(C(F)(F)F)cc2)nn(-c2cccnc2)c1=O (single isomer, unassigned) [Example 36, N-[(cis)-4-hydroxy-1-oxidotetrahydro-thiophen-3-yl]-3-oxo-2-(pyridin-3-yl)-6-[4-(trifluoromethyl)phenyl]-2,3-dihydropyridazine-4-carboxamide] |
|  | 13.4 | O=C(N[C@@H]1C[S+]([O-])C[C@@H]1O)c1cc(-c2ccc(Cl)cc2)nn(-c2cccc(F)c2)c1=O (single isomer, unassigned; (-)) [Example 28, (−)-6-(4-chlorophenyl)-2-(3-fluorophenyl)-N-[(cis)-4-hydroxy-1-oxidotetrahydro-thiophen-3-yl]-3-oxo-2,3-dihydropyridazine-4-carboxamide] |
|  | 150 | O=C(N[C@@H]1C[S+]([O-])C[C@@H]1O)c1cc(-c2ccc(C(F)(F)F)cc2)nn(-c2cccnc2)c1=O (single isomer, unassigned) [Example 37, N-[(cis)-4-hydroxy-1-oxidotetrahydro-thiophen-3-yl]-3-oxo-2-(pyridin-3-yl)-6-[4-(trifluoromethyl)phenyl]-2,3-dihydropyridazine-4-carboxamide] |
|  | 139 | O=C(N[C@@H]1C[S+]([O-])C[C@@H]1O)c1cc(-c2ccc(C(F)(F)F)cc2)nn(-c2cccnc2)c1=O (relative stereo) [Example 33, N-[(cis)-4-hydroxy-1-oxidotetrahydro-thiophen-3-yl]-3-oxo-2-(pyridin-3-yl)-6-[4-(trifluoromethyl)phenyl]-2,3-dihydropyridazine-4-carboxamide] |
|  | 29.2 | O=C(N[C@@H]1CS(=O)(=O)C[C@@H]1O)c1cc(-c2ccc(C(F)(F)F)cc2)nn(-c2cccnc2)c1=O (relative stereo) [Example 16, N-[(cis)-4-hydroxy-1,1-dioxidotetrahydro-thiophen-3-yl]-3-oxo-2-(pyridin-3-yl)-6-[4-(trifluoromethyl)phenyl]-2,3-dihydropyridazine-4-carboxamide] |
|  | 210 | O=C(N[C@@H]1C[S+]([O-])C[C@@H]1O)c1cc(-c2ccc(Cl)cc2)nn(-c2cccc(F)c2)c1=O (single isomer, unassigned; (-)) [Example 30, (−)-6-(4-chlorophenyl)-2-(3-fluorophenyl)-N-[(cis)-4-hydroxy-1-oxidotetrahydro-thiophen-3-yl]-3-oxo-2,3-dihydropyridazine-4-carboxamide] |
